The values below come from ChEMBL document CHEMBL1201862, “PubChem BioAssay data set” (2004).

Some test systems named below: SK-MEL-2; CCRF-CEM; U-251; DMS-114; OVCAR-5; HT-29; NCI-H23; SF-295; HCC 2998; NCI-H460; K562; SW-620; MDA-MB-435; CAKI-1; Hs-578T; SR; T47D; MCF7; MDA-MB-231; DU-145.
Holding throughout (assay): growth of human tumour cells (NCI), 48 h

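1) Cells in 96-well plates. 2) Compound, 48 h, 5 concentrations. 3) Linear interpolation between surrounding doses. 4) Unreached endpoint = highest concentration. GI50 is the concentration that inhibits growth by half.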 Calls of active or inactive are those of the source. No stated cut-off is given here; in the data, active = GI50 up to about 1.1 µM and inactive = higher. Some results are limits rather than exact numbers.

Consider `Cc1cc2c(c(C(N)=O)c1C)-c1cc(Cl)cc(Cl)c1C2=O`, for which the GI50 in the assay with SK-MEL-2 was > 100 µM (inactive); in the assay with CCRF-CEM it was > 100 µM (inactive); in the assay on U-251 it was 30.7 µM (inactive); in the assay with DMS-114, > 100 µM (inactive); in the assay with OVCAR-5 it was > 100 µM (inactive); in the assay with HT-29 it was > 100 µM (inactive). Also, the GI50 in the assay with NCI-H23 is > 100 µM (inactive); in the assay with SF-295, 73.8 µM (inactive); in the assay with HCC 2998 it was > 100 µM (inactive); with NCI-H460, > 100 µM (inactive); in the assay with K562, > 100 µM (inactive).

Turning to `C/C(CC(=O)Nc1ccc(C)c(C)c1)=N\NC(N)=O`, the GI50 in the assay with SK-MEL-2, in the assay on CCRF-CEM, with SW-620, in the assay with U-251, in the assay on DMS-114 and with OVCAR-5 was > 100 µM (inactive) each time. Besides, the GI50 in the assay on HT-29, with NCI-H23, with SF-295, in the assay with HCC 2998, in the assay with NCI-H460 and in the assay with K562 was > 100 µM (inactive) throughout.

For `CC(=O)Nc1nc(Cl)cc(NCC2(CO)CCC2)n1`, the GI50 in the assay on SK-MEL-2, in the assay on CCRF-CEM, in the assay with SW-620, in the assay on MDA-MB-435, in the assay with CAKI-1 and with U-251 was > 100 µM (inactive) throughout. For the same compound, the GI50 in the assay on Hs-578T, in the assay with SR, in the assay with OVCAR-5, in the assay on HT-29, with T47D and in the assay with NCI-H23 was > 100 µM (inactive) throughout. Also, the GI50 with MCF7, in the assay on MDA-MB-231, in the assay with SF-295, in the assay with HCC 2998, with DU-145 and in the assay with NCI-H460 was > 100 µM (inactive) each time. Moreover, the GI50 with K562 is > 100 µM (inactive).

Consider `O=[N+]([O-])c1ccc2sc(/C=N/c3cnccn3)cc2c1`, for which the GI50 in the assay on SK-MEL-2 was 23.2 µM (inactive); with CCRF-CEM, 13.7 µM (inactive); with SW-620, 25 µM (inactive); in the assay with MDA-MB-435, 18.4 µM (inactive); in the assay with CAKI-1, 57.3 µM (inactive); in the assay with U-251, 20.9 µM (inactive). Besides, the GI50 in the assay on Hs-578T was 16.7 µM (inactive); in the assay on SR it was 14.5 µM (inactive); in the assay with OVCAR-5 it was 36.4 µM (inactive); with HT-29, 39.2 µM (inactive); in the assay on T47D, 0.714 µM (active); in the assay with NCI-H23, 63 µM (inactive). Further, the GI50 was 5.74 µM (inactive) in the assay with MCF7; 23.7 µM (inactive) in the assay on MDA-MB-231; 35.4 µM (inactive) in the assay on SF-295; 18.7 µM (inactive) in the assay on HCC 2998; 21.5 µM (inactive) in the assay with DU-145; 31 µM (inactive) with NCI-H460. Besides, in the assay with K562, the GI50 is 21.4 µM (inactive).

In the case of `C[C@@H]1CCC2[C@@H](C)[C@@H](OCCO[C@H]3OC4O[C@@]5(C)CCC6[C@H](C)CCC([C@H]3C)[C@@]46OO5)OC3O[C@@]4(C)CCC1[C@]32OO4` (some centres not stated), the GI50 in the assay on SK-MEL-2 is 0.292 µM (active); with CCRF-CEM it was 0.0682 µM (active); in the assay with SW-620, 0.0537 µM (active); in the assay on MDA-MB-435 it was 0.239 µM (active); in the assay on CAKI-1, 0.0652 µM (active); in the assay on U-251, 0.0902 µM (active). In addition, the GI50 is 0.211 µM (active) in the assay on Hs-578T; 0.0345 µM (active) with SR; 0.0826 µM (active) with OVCAR-5; 0.05 µM (active) in the assay on HT-29; 0.0263 µM (active) with T47D; 0.115 µM (active) in the assay on NCI-H23. Besides, the GI50 in the assay on MCF7 is 0.0312 µM (active); in the assay with MDA-MB-231, 2.21 µM (inactive); with SF-295, 0.405 µM (active); in the assay with HCC 2998, 6.92 µM (inactive); in the assay with DU-145, 0.171 µM (active); with NCI-H460, 0.151 µM (active). For the same compound, in the assay with K562, the GI50 is 0.0212 µM (active).

In the case of `CC(C)=CCCC(C)CCOS(=O)C(F)(F)F` (configuration not stated), the GI50 was 16.9 µM (inactive) with SK-MEL-2; 4.29 µM (inactive) in the assay on CCRF-CEM; 3.29 µM (inactive) in the assay on SW-620; 4.18 µM (inactive) in the assay on MDA-MB-435; 25.2 µM (inactive) in the assay with CAKI-1; 9.66 µM (inactive) in the assay on U-251. Moreover, the GI50 in the assay with Hs-578T was 1.16 µM (inactive); with SR it was 1.92 µM (inactive); in the assay with OVCAR-5 it was 11 µM (inactive); with HT-29, 5.12 µM (inactive); with T47D, 43.7 µM (inactive); with NCI-H23, 2.58 µM (inactive). Besides, the GI50 in the assay on MCF7 is 34.7 µM (inactive); with MDA-MB-231, 16.6 µM (inactive); with SF-295, 25.1 µM (inactive); in the assay on HCC 2998, 13.2 µM (inactive); with DU-145, 35.3 µM (inactive); with NCI-H460, 16.1 µM (inactive). Also, the GI50 in the assay with K562 is 3.78 µM (inactive).

Consider `CCOC(=O)C1=C(C)N(NC(=O)Nc2ccccc2)C2(N)N(NC(=O)Nc3ccccc3)C(C)=C(C(=O)OCC)C12C#N` (configuration not stated), for which the GI50 was 16.1 µM (inactive) in the assay on SK-MEL-2; 28.2 µM (inactive) with CCRF-CEM; 18.9 µM (inactive) in the assay on SW-620; 19.2 µM (inactive) in the assay on CAKI-1; 18.4 µM (inactive) with U-251; 16.1 µM (inactive) with DMS-114. Moreover, the GI50 with OVCAR-5 is 17.8 µM (inactive); in the assay on HT-29, 20.7 µM (inactive); with NCI-H23 it was 22.3 µM (inactive); in the assay with HCC 2998, 19.2 µM (inactive); with NCI-H460, 17.8 µM (inactive); with K562, 20 µM (inactive).

In the case of `CCc1nc(N)nc(N)c1-c1ccc2c(c1)nnn2CCc1ccccc1`, the GI50 with SK-MEL-2 is 28.2 µM (inactive); in the assay with CCRF-CEM it was 7.23 µM (inactive); in the assay on SW-620, 4.92 µM (inactive); in the assay on MDA-MB-435, 6.52 µM (inactive); in the assay with CAKI-1, 11.2 µM (inactive); in the assay on U-251 it was 7.69 µM (inactive). Further, the GI50 is 30.7 µM (inactive) with Hs-578T; 5.18 µM (inactive) in the assay on SR; > 60.5 µM (inactive) in the assay with OVCAR-5; 3.53 µM (inactive) with HT-29; 23.4 µM (inactive) with T47D; 12.6 µM (inactive) in the assay on NCI-H23. The GI50 in the assay on MCF7 is 21.1 µM (inactive); with MDA-MB-231 it was 26.1 µM (inactive); in the assay on SF-295, 8.3 µM (inactive); with HCC 2998 it was 13.9 µM (inactive); with DU-145, 23.9 µM (inactive); with NCI-H460, 2.32 µM (inactive). For the same compound, the GI50 with K562 was 1.55 µM (inactive).

Consider `CC1(C)N=C(N)N=C(N)N1c1cccc(Cl)c1`, for which the GI50 was > 100 µM (inactive) in the assay with SK-MEL-2; 3.76 µM (inactive) in the assay on CCRF-CEM; > 100 µM (inactive) in the assay with SW-620; 0.604 µM (active) in the assay with MDA-MB-435; > 100 µM (inactive) with CAKI-1; 1.36 µM (inactive) in the assay with U-251. The GI50 in the assay on Hs-578T is > 100 µM (inactive); in the assay with SR it was 1.73 µM (inactive); in the assay on OVCAR-5 it was 9.12 µM (inactive); in the assay with HT-29, 0.785 µM (active); in the assay with T47D, > 100 µM (inactive); with NCI-H23 it was 3.22 µM (inactive). Further, the GI50 in the assay with MCF7 is 4.6 µM (inactive); in the assay with MDA-MB-231, 61.8 µM (inactive); with SF-295, 1.83 µM (inactive); in the assay on HCC 2998, 14 µM (inactive); in the assay with DU-145, 17.4 µM (inactive); in the assay with NCI-H460, 1.43 µM (inactive). The GI50 with K562 was 3.66 µM (inactive).

Turning to `NC(=O)c1cc2cc(Cl)cc(Cl)c2o/c1=N\c1ccc(F)cc1`, the GI50 is 16.3 µM (inactive) with SK-MEL-2; 56.8 µM (inactive) with CCRF-CEM; 30.3 µM (inactive) in the assay with SW-620; 20 µM (inactive) in the assay with MDA-MB-435; 18.1 µM (inactive) in the assay with CAKI-1; 19.6 µM (inactive) in the assay with U-251. In addition, the GI50 with Hs-578T is 35.1 µM (inactive); in the assay on SR, 4.08 µM (inactive); in the assay with OVCAR-5, 19.6 µM (inactive); in the assay on HT-29, 29.6 µM (inactive); with T47D, 18.3 µM (inactive); in the assay with NCI-H23 it was 14.7 µM (inactive). In addition, the GI50 in the assay with MCF7 was 19.8 µM (inactive); in the assay with MDA-MB-231, 17.5 µM (inactive); with SF-295, 18.5 µM (inactive); with HCC 2998, 21.1 µM (inactive); in the assay on DU-145, 19 µM (inactive); in the assay with NCI-H460, 17.1 µM (inactive). Besides, the GI50 with K562 was 7.11 µM (inactive).

Take `CC1=NN(C(=O)c2ccncc2)C(=O)C1/N=N/c1ccc(F)cc1` (configuration not stated): the GI50 in the assay on SK-MEL-2, in the assay with SW-620, in the assay with CAKI-1, with DMS-114, with OVCAR-5 and in the assay on HT-29 was > 100 µM (inactive) throughout. The GI50 in the assay with NCI-H23, in the assay on SF-295, with NCI-H460 and in the assay with K562 was > 100 µM (inactive) in each case.

With `O=c1ccs[nH]1`, the GI50 is 28.3 µM (inactive) in the assay on SK-MEL-2; 1.56 µM (inactive) in the assay on CCRF-CEM; 4.06 µM (inactive) with SW-620; 13.6 µM (inactive) in the assay with MDA-MB-435; 9.46 µM (inactive) in the assay with CAKI-1; 7.21 µM (inactive) in the assay with U-251. Besides, the GI50 was 22 µM (inactive) with Hs-578T; 2.54 µM (inactive) in the assay with SR; 16.3 µM (inactive) in the assay on OVCAR-5; 11.2 µM (inactive) in the assay on HT-29; 3.81 µM (inactive) with T47D; 3.8 µM (inactive) in the assay on NCI-H23. Also, the GI50 with MCF7 was 8.36 µM (inactive); with MDA-MB-231 it was 14.7 µM (inactive); with SF-295, 6.17 µM (inactive); in the assay with HCC 2998, 3.97 µM (inactive); with DU-145, 40.5 µM (inactive); with NCI-H460 it was 9.08 µM (inactive). Also, the GI50 in the assay on K562 was 7.82 µM (inactive).
